Results as given in ChEMBL document CHEMBL2176906, “Diterpenoids isolated from Sideritis species protect astrocytes against oxidative stress via Nrf2” (J Nat Prod, 2012).
Active and inactive are the calls of the source. The calls are words filed in the database; no cut-off is given here.

Tests used:
[1] = Cytotoxicity against human U373MG cells assessed as dye reduction at 1 to 10 uM after 24 hrs by MTT assay; assay type: cell-based, U-373MG ATCC; details: read-out: Activity
[2] = Cytotoxicity against human U373MG cells at 1 to 100 uM after 24 hrs by LDH assay; assay type: cell-based; details: u-373mg atcc
[3] = Cytotoxicity against human U373MG cells at 1 to 100 uM after 24 hrs by MTT assay; assay type: cell-based; details: u-373mg atcc
[4] = biological target: T1, Nuclear factor erythroid 2-related factor 2 (Homo sapiens) (UniProt Q16236); assay: Induction of Nrf2-mediated CAT protein expression in H2O2-stimulated human U373MG cells preincubated at 10 uM for 24 hrs before H2O2 challenge by Western blot method; assay type: cell-based; details: U-373MG ATCC
T1 sequence (whole entry): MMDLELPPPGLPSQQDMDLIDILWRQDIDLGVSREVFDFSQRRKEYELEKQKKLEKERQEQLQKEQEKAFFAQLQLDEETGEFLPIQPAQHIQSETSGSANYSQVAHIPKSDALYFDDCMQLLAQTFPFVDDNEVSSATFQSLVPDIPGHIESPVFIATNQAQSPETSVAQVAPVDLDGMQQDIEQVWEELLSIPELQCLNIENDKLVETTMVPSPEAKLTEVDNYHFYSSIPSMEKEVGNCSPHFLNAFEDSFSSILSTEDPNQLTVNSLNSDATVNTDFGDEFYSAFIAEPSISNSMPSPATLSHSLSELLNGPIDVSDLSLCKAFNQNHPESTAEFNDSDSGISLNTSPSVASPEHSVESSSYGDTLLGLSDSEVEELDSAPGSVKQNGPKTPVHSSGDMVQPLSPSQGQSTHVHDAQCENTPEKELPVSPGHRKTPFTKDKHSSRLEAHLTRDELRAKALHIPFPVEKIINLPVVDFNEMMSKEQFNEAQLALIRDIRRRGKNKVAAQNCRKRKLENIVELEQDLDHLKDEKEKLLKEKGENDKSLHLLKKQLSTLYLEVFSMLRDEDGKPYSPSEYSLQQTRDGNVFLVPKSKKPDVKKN

[5] = Antioxidant activity in human U373MG cells assessed as reduction in H2O2-induced ROS production preincubated at 5 to 10 uM for 24 hrs before H2O2 challenge by DCFH-DA assay relative to untreated control; assay type: functional, U-373MG ATCC
[6] = biological target: T1, Nuclear factor erythroid 2-related factor 2 (Homo sapiens); assay: Induction of Nrf2-mediated HO-1 protein expression in H2O2-stimulated human U373MG cells preincubated at 10 uM for 24 hrs before H2O2 challenge by Western blot method; assay type: cell-based; details: U-373MG ATCC
[7] = biological target: T1, Nuclear factor erythroid 2-related factor 2 (Homo sapiens); assay: Induction of Nrf2-mediated HO-1 protein expression in H2O2-stimulated human U373MG cells preincubated at 5 uM for 24 hrs before H2O2 challenge by Western blot method; assay type: cell-based; details: U-373MG ATCC
[8] = biological target: T1, Nuclear factor erythroid 2-related factor 2 (Homo sapiens); assay: Induction of Nrf2-mediated glutathione reductase protein expression in H2O2-stimulated human U373MG cells preincubated at 10 uM for 24 hrs before H2O2 challenge by Western blot method; assay type: cell-based; details: U-373MG ATCC
[9] = biological target: T1, Nuclear factor erythroid 2-related factor 2 (Homo sapiens); assay: Induction of Nrf2-mediated glutathione reductase protein expression in H2O2-stimulated human U373MG cells preincubated at 5 uM for 24 hrs before H2O2 challenge by Western blot method; assay type: cell-based; details: U-373MG ATCC
[10] = biological target: T1, Nuclear factor erythroid 2-related factor 2 (Homo sapiens); assay: Induction of Nrf2-mediated SOD protein expression in H2O2-stimulated human U373MG cells preincubated at 10 uM for 24 hrs before H2O2 challenge by Western blot method; assay type: cell-based; details: U-373MG ATCC
U373 MG [11] = assay: Induction of Nrf2 nuclear protein expression in H2O2-stimulated human U373MG cells preincubated at 10 uM for 24 hrs before H2O2 challenge by Western blot method; assay type: functional, cell-based; details: U-373MG ATCC
U373 MG [12] = assay: Induction of Glutathione reductase activity in human U373MG cells assessed as […] per mg protein preincubated at 10 uM for 24 hrs before H2O2 challenge by fluorimetric method (reference value: 9.3 +/- 2.2 nmol/min/mg protein); assay type: functional, U-373MG ATCC
U373 MG [13] = assay: Induction of SOD activity in human U373MG cells assessed per mg protein preincubated at 10 uM for 24 hrs before H2O2 challenge by fluorimetric method (reference value: 14.2 +/- 3 UI/mg protein); assay type: functional, U-373MG ATCC
U373 MG [14] = assay: Induction of SOD activity in human U373MG cells assessed per mg protein preincubated at 5 uM for 24 hrs before H2O2 challenge by fluorimetric method (reference value: 14.2 +/- 3 UI/mg protein); assay type: functional, U-373MG ATCC
U373 MG [15] = assay: Inhibition of AAPH-induced oxidative stress in human U373MG cells assessed as peroxy radical scavenging activity at 10 uM by ORAC assay; assay type: functional, cell-based; details: U-373MG ATCC
U373 MG [16] = assay: Inhibition of H2O2-induced oxidative stress in human U373MG cells assessed as GSSG level per mg protein at 10 uM by fluorimetric method (reference value: 9.2 +/- 0.9 nmol/mg protein); assay type: functional, U-373MG ATCC
U-373MG ATCC [17] = assay: Antioxidant activity in human U373MG cells assessed as reduction in H2O2-induced morphological changes preincubated at 5 uM for 24 hrs before H2O2 challenge by phase-contrast microscopy; assay type: functional, cell-based
U-373MG ATCC [18] = assay: Antioxidant activity in human U373MG cells assessed as reduction in H2O2-induced cytotoxicity preincubated for 24 hrs before H2O2 challenge by LDH assay; assay type: functional, cell-based
U-373MG ATCC [19] = assay: Antioxidant activity in human U373MG cells assessed as reduction in H2O2-induced cytotoxicity preincubated for 24 hrs before H2O2 challenge by MTT assay; assay type: functional, cell-based
U-373MG ATCC [20] = assay: Antioxidant activity in human U373MG cells assessed as reduction in H2O2-induced cytotoxicity preincubated at 5 uM for 24 hrs before H2O2 challenge by MTT assay; assay type: functional, cell-based
[21] = Cytotoxicity against human U373MG cells at > 10 uM after 24 hrs by MTT assay; assay type: cell-based; details: u-373mg atcc
U-373MG ATCC [22] = assay: Antioxidant activity in human U373MG cells assessed as reduction in H2O2-induced cytotoxicity preincubated at 10 uM for 24 hrs before H2O2 challenge by LDH assay; assay type: functional, cell-based
U-373MG ATCC [23] = assay: Antioxidant activity in human U373MG cells assessed as reduction in H2O2-induced cytotoxicity preincubated at 5 uM for 24 hrs before H2O2 challenge by LDH assay; assay type: functional, cell-based
U-373MG ATCC [24] = assay: Antioxidant activity in human U373MG cells assessed as reduction in H2O2-induced cytotoxicity preincubated at 10 uM for 24 hrs before H2O2 challenge by MTT assay; assay type: functional, cell-based
[25] = Cytotoxicity against human U373MG cells at > 50 uM after 24 hrs by MTT assay; assay type: cell-based; details: u-373mg atcc
U-373MG ATCC [26] = assay: Antioxidant activity in human U373MG cells assessed as reduction in H2O2-induced ROS production preincubated at 10 uM for 24 hrs before H2O2 challenge by DCFH-DA assay; assay type: functional, cell-based
U-373MG ATCC [27] = assay: Antioxidant activity in human U373MG cells assessed as reduction in H2O2-induced ROS production preincubated at 5 uM for 24 hrs before H2O2 challenge by DCFH-DA assay; assay type: functional, cell-based

## C=CC(=C)CC[C@H]1[C@]2(C)CCC[C@](C)(CO)[C@H]2[C@H](O)C[C@]1(C)O [ANDALUSOL]
[1]
  viability at 24 h, up to 10 µM: 90%
[2]
  Activity: Non-toxic
[3]
  Activity: Non-toxic
[4]
  Activity: Active
[5]
  Ratio: 1.4
[6]
  Activity: Active
[7]
  Activity: Active
[8]
  Activity: Active
[9]
  Activity: Active
[10]
  Activity: Active
U373 MG [11]
  Activity: Active
U373 MG [12]
  Activity: 19.7 nmol/min
U373 MG [13]
  Activity: 26 IU
U373 MG [14]
  Activity: 24.7 IU
U373 MG [15]
  Activity: inactive
U373 MG [16]
  Activity: 6.8 nmol
U-373MG ATCC [17]
  Activity: Active
U-373MG ATCC [18]
  Activity: Dose-dependent effect
U-373MG ATCC [19]
  Activity: Dose-dependent effect

## CC1(C)CCC[C@]2(C)[C@@H]1C[C@H](O)[C@@]13C=C[C@@](CO)(C1)[C@H](O)C[C@@H]23 [CONCHITRIOL]
U-373MG ATCC [20]
  Activity: Active
[1]
  viability at 24 h, up to 10 µM: 90%
[21]
  Activity: Toxic
[4]
  Activity: inactive
[10]
  Activity: inactive
U373 MG [11]
  Activity: inactive
U373 MG [12]
  Activity: 10.2 nmol/min
U373 MG [13]
  Activity: 18.8 IU
U373 MG [14]
  Activity: 15 IU
U373 MG [15]
  Activity: inactive
U373 MG [16]
  Activity: 8.6 nmol
U-373MG ATCC [17]
  Activity: Active
U-373MG ATCC [22]
  Activity: Active
U-373MG ATCC [23]
  Activity: Active
U-373MG ATCC [24]
  Activity: Active

## CC1(C)CCC[C@H]2C1=CC[C@H]1C[C@@](C)([C@@H](O)CO)C[C@@H](O)[C@@]12C [LAGASCATRIOL]
[25]
  Activity: Toxic
[1]
  viability at 24 h, up to 10 µM: 90%
[4]
  Activity: Active
[6]
  Activity: Active
[7]
  Activity: Active
[8]
  Activity: Active
[9]
  Activity: Active
[10]
  Activity: Active
U373 MG [11]
  Activity: Active
U373 MG [12]
  Activity: 20.6 nmol/min
U373 MG [13]
  Activity: 23.9 IU
U373 MG [14]
  Activity: 22.8 IU
U373 MG [15]
  Activity: inactive
U373 MG [16]
  Activity: 7 nmol
U-373MG ATCC [26]
  Activity: Active
U-373MG ATCC [27]
  Activity: Active
U-373MG ATCC [17]
  Activity: Active
U-373MG ATCC [18]
  Activity: Dose-dependent effect
U-373MG ATCC [19]
  Activity: Dose-dependent effect
